According to patent EP0845217A1, “Inhibiting undesirable taste in oral compositions” (priority 1996, dated 1998):

Experiments:
[1] = system: purified protein tyrosine phosphatase; assay: Purified protein tyrosine phosphatase, dephosphorylation of phosphotyrosine-containing peptide substrates; assay type: biochemical; settings: experiments not described
[2] = system: mud puppy taste cells; assay: Response of isolated taste cells to bitter-tasting compounds, intracellular calcium fluorescence; assay type: cell-based
Protocol: Taste cells are isolated from the mud puppy, a type of salamander (S. C. Kinnamon, et al, Chemical Senses 13: 355 - 366, 1988). Briefly, a fresh mud puppy tongue is incubated with collagenase, the non-gustatory epithelium is peeled off the surface, and individual taste buds are gently drawn into a micropipette using a dissecting microscope at 50X magnification. The taste buds are plated into small vessels, that are coated with Cell-Tak, containing culture media. The taste cells can remain viable up to 18 days and maintain normal functions (C. Ruiz, et al, Experimental Cell Biology of Taste and Olfaction, Current Techniques and Protocols, A. I. Spielman and J. G. Brand, eds., CRC Press, 1995, pp. 79 - 84). The taste cells are labeled intracellularly with a marker compound that fluoresces in a dose-dependent fashion to calcium ion concentration. Since an increase in the intracellular calcium ion concentration is one of the last steps in converging biochemical signal transduction pathways for bitterness, the fluorescent marker correlates with taste cell response to bitterness (D. Restrepo, et al, Experimental Cell Biology of Taste and Olfaction, Current Techniques and Protocols, A. I. Spielman and J. G. Brand, eds., CRC Press, 1995, pp. 387 - 398). Labeled taste cells are observed microscopically using image analysis software. Using a micropipette, taste cells are exposed to bitter-tasting compounds by adding the compounds in media near the taste cell. Cells that respond to the bitter-tasting compound show an increase in fluorescence intensity. Bitter inhibitors are tested by adding them to the test solution with the bitter-tasting compound. The response of individual taste cells to bitter-tasting compounds and to bitter-tasting compounds plus inhibitor are monitored by measuring the fluorescent intensity using a microscope. Images are stored electronically and image analysis software is used to analyze the data (D. Restrepo, et al, Biophysical Journal 64: 1961 - 1966, 1993).

[3] = system: human taste response to bitter-tasting compounds; assay: Human taste test: detection threshold of bitter-tasting compounds with and without VMP; assay type: in vivo; settings: 0.3% VMP
Protocol: In the first taste test, the detection threshold for a bitter-tasting compound is determined by having subjects taste a series of solutions containing increasing concentrations of the bitter-tasting compound. None of the subjects are able to taste the bitterness in the first solution containing the lowest concentration of the bitter-tasting molecule. The subjects are instructed to indicate the first, or lowest concentration of solution that is sensed as bitter. This concentration is the detection threshold for that particular compound and subject. […] The detection threshold for the bitter-tasting compound plus inhibitor is likewise determined. All of these aqueous solutions contain 5% sucrose. […] The dilution series are in ^1/2 log increments (i.e., 1 uM, 3.2 uM, 10 uM, 32 uM). The pair of dilution series with and without inhibitor is tasted within a 2 hour time period. Subjects are blinded as to the identity of the bitter compound and whether inhibitor is present or not. The two dilution series are presented in random order. […]

[4] = system: human taste response to bitter-tasting compounds; assay: Human taste test: paired comparisons of bitter-tasting compounds with and without VMP; assay type: in vivo; settings: inhibitor 0.3%; for Cert. (%): mean certainty score
Excerpt: In this test all samples contain 5% sucrose. […] Subjects rate which sample is most bitter, and also indicate on a 7 point scale the certainty of their choice. […] However, it inhibits bitterness of phenylpropanolamine and guaifenesin to a lesser degree.

[5] = acetaminophen 10.00 mM, total # responses 4
[6] = acetaminophen 32.00 mM, total # responses 5
[7] = chlorpheniramine maleate 0.100 mM, total # responses 4
[8] = chlorpheniramine maleate 1.000 mM, total # responses 4
[9] = dextromethorphan 0.320 mM, total # responses 4
[10] = guaifenesin 0.320 mM, total # responses 4
[11] = guaifenesin 3.200 mM, total # responses 4
[12] = guaifenesin 10.00 mM, total # responses 4
[13] = phenylpropanolamine HCl 3.200 mM, total # responses 5
[14] = phenylpropanolamine HCl 10.00 mM, total # responses 5
[15] = pseudoephedrine HCl 0.320 mM, total # responses 5
[16] = pseudoephedrine HCl 1.000 mM, total # responses 5
[17] = sucrose octaacetate 0.001 mM, total # responses 5
[18] = sucrose octaacetate 0.003 mM, total # responses 5

vanillylmonophosphate [VMP] was tested, and the “effect on tyrosine phosphatase activity against peptide substrates” value [1] was “inhibits the activity”, the “effect on taste cell response to denatonium benzoate” value ([2]; inhibitor mixed with denatonium benzoate) was “decreases the taste cell response” and the “effect on taste cell response to dextromethorphan” value ([2]; inhibitor mixed with dextromethorphan) was “decreases the taste cell response”. For the same substance, the “# VMP did not change threshold” value ([3]; CPC, n 2) was 1, the “# VMP increased threshold” value ([3]; CPC, n 2) was 0 and the “% Subjects that VMP increased threshold” value ([3]; CPC, n 2) was 0.00%. The “# VMP did not change threshold” value ([3]; acetaminophen, n 5) was 3, the “# VMP increased threshold” value ([3]; acetaminophen, n 5) was 2 and the “% Subjects that VMP increased threshold” value ([3]; acetaminophen, n 5) was 40.00%. For the same substance, the “# VMP did not change threshold” value ([3]; caffeine, n 4) was 3, the “# VMP increased threshold” value ([3]; caffeine, n 4) was 0 and the “% Subjects that VMP increased threshold” value ([3]; caffeine, n 4) was 0.00%. The “# VMP did not change threshold” value ([3]; chlorpheniramine maleate, n 5) was 0, the “# VMP increased threshold” value ([3]; chlorpheniramine maleate, n 5) was 4 and the “% Subjects that VMP increased threshold” value ([3]; chlorpheniramine maleate, n 5) was 80.00%. For the same substance, the “# VMP did not change threshold” value ([3]; cimetidine, n 2) was 1, the “# VMP increased threshold” value ([3]; cimetidine, n 2) was 1 and the “% Subjects that VMP increased threshold” value ([3]; cimetidine, n 2) was 50.00%. For the same substance, the “# VMP did not change threshold” value ([3]; denatonium benzoate, n 4) was 2, the “# VMP increased threshold” value ([3]; denatonium benzoate, n 4) was 2 and the “% Subjects that VMP increased threshold” value ([3]; denatonium benzoate, n 4) was 50.00%. The “# VMP did not change threshold” value ([3]; dextromethorphan, n 5) was 4, the “# VMP increased threshold” value ([3]; dextromethorphan, n 5) was 1 and the “% Subjects that VMP increased threshold” value ([3]; dextromethorphan, n 5) was 20.00%. The “# VMP did not change threshold” value ([3]; domiphen bromide, n 4) was 3, the “# VMP increased threshold” value ([3]; domiphen bromide, n 4) was 1 and the “% Subjects that VMP increased threshold” value ([3]; domiphen bromide, n 4) was 25.00%. The “# VMP did not change threshold” value ([3]; doxylamine succinate, n 3) was 1, the “# VMP increased threshold” value ([3]; doxylamine succinate, n 3) was 2 and the “% Subjects that VMP increased threshold” value ([3]; doxylamine succinate, n 3) was 66.67%. The “# VMP did not change threshold” value ([3]; famotidine, n 3) was 3, the “# VMP increased threshold” value ([3]; famotidine, n 3) was 0 and the “% Subjects that VMP increased threshold” value ([3]; famotidine, n 3) was 0.00%. The “# VMP did not change threshold” value ([3]; guaifenesin, n 8) was 2, the “# VMP increased threshold” value ([3]; guaifenesin, n 8) was 2 and the “% Subjects that VMP increased threshold” value ([3]; guaifenesin, n 8) was 25.00%. For the same substance, the “# VMP did not change threshold” value ([3]; phenylpropanolamine, n 7) was 2, the “# VMP increased threshold” value ([3]; phenylpropanolamine, n 7) was 4 and the “% Subjects that VMP increased threshold” value ([3]; phenylpropanolamine, n 7) was 57.14%. For the same substance, the “# VMP did not change threshold” value ([3]; pseudoephedrine, n 5) was 2, the “# VMP increased threshold” value ([3]; pseudoephedrine, n 5) was 2 and the “% Subjects that VMP increased threshold” value ([3]; pseudoephedrine, n 5) was 40.00%. For the same substance, the “# VMP did not change threshold” value ([3]; ranitidine, n 3) was 1, the “# VMP increased threshold” value ([3]; ranitidine, n 3) was 1 and the “% Subjects that VMP increased threshold” value ([3]; ranitidine, n 3) was 33.33%. For the same substance, the “# VMP did not change threshold” value ([3]; sucrose octaacetate, n 7) was 4, the “# VMP increased threshold” value ([3]; sucrose octaacetate, n 7) was 1 and the “% Subjects that VMP increased threshold” value ([3]; sucrose octaacetate, n 7) was 14.29%. The “Cert. (%)” value ([4]; acetaminophen 10.00 mM) was 43%, the Corr./Tot. [4, 5] was 0.50 and the “Correct # responses” value [4, 5] was 2. The “Cert. (%)” value ([4]; acetaminophen 32.00 mM) was 29%, the Corr./Tot. [4, 6] was 0.80 and the “Correct # responses” value [4, 6] was 4. For the same substance, the “Cert. (%)” value ([4]; chlorpheniramine maleate 0.100 mM) was 54%, the Corr./Tot. [4, 7] was 1.00 and the “Correct # responses” value [4, 7] was 4. For the same substance, the “Cert. (%)” value ([4]; chlorpheniramine maleate 1.000 mM) was 71%, the Corr./Tot. [4, 8] was 1.00 and the “Correct # responses” value [4, 8] was 4. For the same substance, the “Cert. (%)” value ([4]; dextromethorphan 0.320 mM) was 82%, the Corr./Tot. [4, 9] was 1.00 and the “Correct # responses” value [4, 9] was 4. For the same substance, the “Cert. (%)” value ([4]; guaifenesin 0.320 mM) was 14%, the Corr./Tot. [4, 10] was 0.50 and the “Correct # responses” value [4, 10] was 2. For the same substance, the “Cert. (%)” value ([4]; guaifenesin 3.200 mM) was 36%, the Corr./Tot. [4, 11] was 0.50 and the “Correct # responses” value [4, 11] was 2. The “Cert. (%)” value ([4]; guaifenesin 10.00 mM) was 57%, the Corr./Tot. [4, 12] was 0.75 and the “Correct # responses” value [4, 12] was 3. The “Cert. (%)” value ([4]; phenylpropanolamine HCl 3.200 mM) was 11%, the Corr./Tot. [4, 13] was 0.40 and the “Correct # responses” value [4, 13] was 2. For the same substance, the “Cert. (%)” value ([4]; phenylpropanolamine HCl 10.00 mM) was 49%, the Corr./Tot. [4, 14] was 0.80 and the “Correct # responses” value [4, 14] was 4. For the same substance, the “Cert. (%)” value ([4]; pseudoephedrine HCl 0.320 mM) was 14%, the Corr./Tot. [4, 15] was 0.60 and the “Correct # responses” value [4, 15] was 3. For the same substance, the “Cert. (%)” value ([4]; pseudoephedrine HCl 1.000 mM) was 34%, the Corr./Tot. [4, 16] was 0.40 and the “Correct # responses” value [4, 16] was 2. The “Cert. (%)” value ([4]; sucrose octaacetate 0.001 mM) was 20%, the Corr./Tot. [4, 17] was 0.20 and the “Correct # responses” value [4, 17] was 1. For the same substance, the “Cert. (%)” value ([4]; sucrose octaacetate 0.003 mM) was 23%, the Corr./Tot. [4, 18] was 0.40 and the “Correct # responses” value [4, 18] was 2.
